Results as given in patent US7385086B2 (priority 1997, dated 2008).

Tested on: isoniazid (INH) resistant M. tuberculosis
Format: cell-based, Mycobacterium tuberculosis

`CCCCCCCCS(=O)(=O)CC(N)=O` [HIII-50, n-Octanesulphonylacetamide] was tested, and the growth inhibition was “inhibits”.

`NNC(=O)c1ccncc1` [isoniazid, reference compound] was tested, and the isoniazid resistance level was over 0.4 µg/mL.
